Reference: ChEMBL document CHEMBL1139063, “Inhibitory effects of phloridzin dihydrate on the activity of mushroom (Agaricus bisporus) tyrosinase” (Bioorg Med Chem, 2007)
One block for each molecule: values may come before it.

Tests used:
[1] = target: T1, Tyrosinase (Agaricus bisporus, UniProt O42713); assay: Inhibition of diphenolase activity of mushroom tyrosinase
T1 sequence (O42713 whole entry): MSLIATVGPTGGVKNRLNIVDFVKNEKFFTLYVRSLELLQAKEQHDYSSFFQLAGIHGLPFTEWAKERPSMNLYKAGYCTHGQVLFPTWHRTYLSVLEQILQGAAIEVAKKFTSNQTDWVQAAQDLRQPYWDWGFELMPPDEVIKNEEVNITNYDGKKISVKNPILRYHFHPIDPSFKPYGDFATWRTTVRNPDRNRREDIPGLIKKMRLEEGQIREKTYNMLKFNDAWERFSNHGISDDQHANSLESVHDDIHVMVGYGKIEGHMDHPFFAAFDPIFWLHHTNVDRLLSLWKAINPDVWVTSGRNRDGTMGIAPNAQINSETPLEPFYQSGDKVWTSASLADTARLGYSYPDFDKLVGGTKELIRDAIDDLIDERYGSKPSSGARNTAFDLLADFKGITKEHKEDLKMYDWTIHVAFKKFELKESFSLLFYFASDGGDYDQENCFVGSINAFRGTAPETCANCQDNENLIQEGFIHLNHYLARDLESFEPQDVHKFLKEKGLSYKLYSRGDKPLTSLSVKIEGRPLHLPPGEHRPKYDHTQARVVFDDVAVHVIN

[2] = substrate: O=C(CCc1ccc(O)cc1)c1c(O)cc(O)cc1O[C@@H]1O[C@H](CO)[C@@H](O)[C@H](O)[C@H]1O; details: Agaricus bisporus
Description: Activity of mushroom tyrosinase diphenolase

IC50 [1]: 110 µM | Ki [1]: 64.3 µM
Molecule: O=C(CCc1ccc(O)cc1)c1c(O)cc(O)cc1O[C@@H]1O[C@H](CO)[C@@H](O)[C@H](O)[C@H]1O

B1: Tyrosinase (Agaricus bisporus), O42713 (protein)
chain: T1 sequence (O42713 whole entry)
Km [2]: 627 µM
